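Following 48 hours of exposure in 96-well plates, responses at five concentrations were used to interpolate endpoints linearly. GI50 = concentration required for 50% inhibition of growth. TGI: total growth inhibition.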
Tests used:
Assay in all cases: DTP human tumour cell line panel, 48 h
[1] = system: HT29 colon
[2] = system: RXF 393 renal
[3] = system: KM12 colon
[4] = system: LOX IMVI melanoma
[5] = system: SF-295 CNS
[6] = system: SF-268 CNS
[7] = system: A549 NSCLC
[8] = system: SN12C renal
[9] = system: SK-MEL-28 melanoma
[10] = system: COLO 205 colon
[11] = system: NCI-H23 lung
[12] = system: HOP-62 NSCLC
[13] = system: T-47D breast
[14] = system: SK-MEL-2 melanoma
[15] = system: OVCAR-4 ovarian
[16] = system: M14 melanoma
[17] = system: OVCAR-3 ovarian
[18] = system: OVCAR-8 ovarian
[19] = system: SW-620 colon
[20] = system: HOP-92 NSCLC
[21] = system: MDA-MB-231 breast
[22] = system: SK-MEL-5 melanoma
[23] = system: UO-31 renal
[24] = system: HCT-116 colon
[25] = system: UACC-62 melanoma
[26] = system: HL-60(TB) leukemia
[27] = system: TK-10 renal
[28] = system: PC-3 prostate
[29] = system: SNB-75 CNS

For `COc1cc(N2CCN(C(C)C)CC2)ccc1Nc1nc(Nc2cccc(F)c2C(=O)O)c2cc[nH]c2n1`, the GI50 [1] was over 25 µM, the TGI [1] was over 25 µM and the GI50 [2] was over 25 µM. It also gave a TGI [2] of over 25 µM, a GI50 [3] of over 25 µM and a TGI [3] of over 25 µM. The GI50 [4] was over 25 µM, the TGI [4] was over 25 µM and the GI50 [5] was over 25 µM. For the same compound, the TGI [5] was over 25 µM, the GI50 [6] was over 25 µM and the TGI [6] was over 25 µM. The GI50 [7] was over 25 µM, the TGI [7] was over 25 µM and the GI50 [8] was over 25 µM. The TGI [8] was over 25 µM, the GI50 [9] was over 25 µM and the TGI [9] was over 25 µM. For the same compound, the GI50 [10] was over 25 µM, the TGI [10] was over 25 µM and the GI50 [11] was over 25 µM. It also gave a TGI [11] of over 25 µM, a GI50 [12] of over 25 µM and a TGI [12] of over 25 µM. The GI50 [13] was over 25 µM, the TGI [13] was over 25 µM and the GI50 [14] was over 25 µM. The TGI [14] was over 25 µM, the GI50 [15] was over 25 µM and the TGI [15] was over 25 µM. It also gave a GI50 [16] of over 25 µM, a TGI [16] of over 25 µM and a GI50 [17] of over 25 µM. It also gave a TGI [17] of over 25 µM, a GI50 [18] of over 25 µM and a TGI [18] of over 25 µM. It also gave a GI50 [19] of over 25 µM, a TGI [19] of over 25 µM and a GI50 [20] of 1.06 µM. For the same compound, the TGI [20] was over 25 µM, the GI50 [21] was over 25 µM and the TGI [21] was over 25 µM. For the same compound, the GI50 [22] was over 25 µM, the TGI [22] was over 25 µM and the GI50 [23] was over 25 µM. The TGI [23] was over 25 µM, the GI50 [24] was over 25 µM and the TGI [24] was over 25 µM. It also gave a GI50 [25] of over 25 µM, a TGI [25] of over 25 µM and a GI50 [26] of over 25 µM. The TGI [26] was over 25 µM, the GI50 [27] was over 25 µM and the TGI [27] was over 25 µM. The GI50 [28] was over 25 µM, the TGI [28] was over 25 µM and the GI50 [29] was over 25 µM. It also gave a TGI [29] of over 25 µM.

Source: PubChem BioAssay (NCI)
